From the NIST ThermoML archive (doi:10.1021/je060411g)

What was measured:
[1] = Glass
[2] = molar heat capacity at constant pressure; details: 101.33 kPa

CC(C)CCO [3-methylbutan-1-ol]
Details	Glass transition temperature [°C]
[1]	-155

[2]
Details	molar heat capacity at constant pressure [J/K/mol]
79.29 K, Glass	64.16
79.93 K, Glass	64.23
81.22 K, Glass	65.13
83.16 K, Glass	66.6
85.07 K, Glass	67.98
86.97 K, Glass	69.22
88.88 K, Glass	70.53
90.79 K, Glass	71.96
92.71 K, Glass	73.36
94.62 K, Glass	74.71
96.54 K, Glass	76.12
98.47 K, Glass	77.7
100.4 K, Glass	79.43
102.33 K, Glass	80.27
104.26 K, Glass	81.54
106.19 K, Glass	83.08
108.13 K, Glass	84.68
110.07 K, Glass	86.19
112.01 K, Glass	87.96
113.94 K, Glass	90.43
115.88 K, Glass	94.62
123.04 K, Liquid	144.09
124.93 K, Liquid	144.11
126.89 K, Liquid	144.29
128.85 K, Liquid	144.62
130.82 K, Liquid	144.96
132.79 K, Liquid	145.22
134.76 K, Liquid	145.47
136.73 K, Liquid	145.74
138.7 K, Liquid	146.13
140.67 K, Liquid	146.33
142.65 K, Liquid	146.61
144.62 K, Liquid	146.82
146.59 K, Liquid	147.14
148.57 K, Liquid	147.5
150.54 K, Liquid	147.86
152.52 K, Liquid	148.08
154.49 K, Liquid	148.41
156.46 K, Liquid	148.76
158.43 K, Liquid	148.95
160.41 K, Liquid	149.4
162.38 K, Liquid	149.76
164.35 K, Liquid	149.96
166.32 K, Liquid	150.38
168.29 K, Liquid	150.9
170.27 K, Liquid	151.21
172.24 K, Liquid	151.76
174.21 K, Liquid	152.03
176.19 K, Liquid	152.42
178.16 K, Liquid	152.92
180.14 K, Liquid	153.49
182.11 K, Liquid	153.84
184.09 K, Liquid	154.42
186.07 K, Liquid	154.93
188.05 K, Liquid	155.51
190.03 K, Liquid	156.14
192.01 K, Liquid	156.62
193.99 K, Liquid	157.15
195.96 K, Liquid	157.72
197.94 K, Liquid	158.12
199.92 K, Liquid	158.79
201.91 K, Liquid	159.5
